Measured values: patent US20230110378A1, “MONOBACTAM COMPOUND AND USE THEREOF” (EVOPOINT BIOSCIENCES CO., LTD., priority 2019, published 2023)
Converted amounts (≈) assume the structure as drawn.

Legend:
Test in all cases: Minimum inhibitory concentration (broth microdilution, CLSI)
Type in all cases: cell-based
[1] = tested on: Escherichia coli HDBEC 30016; conditions: HDBEC30016
Experimental: (§1) 103 bacterial strains used for the minimum inhibitory concentration test were frozen in a −80° C. ULT freezer and thawed 2 days before use. A small amount of frozen microorganism bacteria were scraped using a sterile inoculating loop, streaked onto a suitable solid culture dish for inoculation, and then cultured for about 20 h at 35 t 2° C. in a normal incubator. • Proteus mirabilis HDBPM 40: MA, normal atmospheric environment • The remaining 102 strains of bacteria: TSA, normal atmospheric environment
(§2) 5-10 colonies with similar morphology were picked from the culture dish using a sterile inoculating loop and then re-streaked onto a corresponding solid culture dish. Then the dish was incubated in a normal incubator at 35 t 2° C. for about 20 h.
(§3) 5-10 single microbial colonies were picked from the solid culture dish, resuspended in 500 μL of sterile normal saline (0.9% NaCl), and adjusted to an OD600 of about 0.15 with a spectrophotometer.
(§4) The bacteria were then diluted 300-fold with 1.02×CAMHB to an inoculation concentration of 2×10^5 CFU/mL.
(§5) • There were a total of 3 assay plate patterns, one of which was used for each assay. • 8 rows of the assay plate (rows A-H) were for 8 test compounds, respectively. The highest test concentration of the compounds was 16, 32 or 64 μg/mL, and each compound was diluted 2-fold. • Growth control (GC): a medium containing microbial inoculum (1.02×CAMHB) and dimethylsulfoxide (DMSO) but no compound.
(§6) The test and reference compounds were dissolved in DMSO or H2O to prepare 6.4 mg/mL stock solutions. The stock solutions were diluted to prepare standby solutions with certain concentrations, and the volumes of the standby solutions were determined according to the experimental design. Corresponding volumes of the standby solutions were transferred to the starting wells of a dilution plate (A1-H1), and half the starting-well volume of DMSO to the other wells. Each compound was diluted 2-fold sequentially from column 1 to column 11 (e.g., transferring 30 μL of DMSO to columns 2-12 first, then pipetting 30 μL of the compounds from column 1 to column 2 and mixing them well, then pipetting 30 μL of the compounds from column 2 to column 3 and mixing them well, then pipetting 30 μL of the compounds from column 3 to column 4 and mixing them well, and so on to column 11).
(§7) 1 or 2 μL of the compounds and DMSO were transferred from the compound plate to corresponding wells of the assay plates.
(§8) 98 μL of corresponding bacterial inocula were added to the assay plates.
(§9) After addition, the assay plates were covered with sterile covers. The mixtures in the assay plates were centrifuged in a centrifuge at 800 rpm for 30 s, mixed well on a microplate shaker at 400 rpm for 1 min, and incubated in a normal incubator at 35 t 2° C. for 20-24 h.
(§10) The assay plates were placed on a plate reading device, and the speculum was adjusted to observe and record the growth condition of bacteria in each well. In the mean time, each assay plate was photographed with QCount system.
(§11) The minimum inhibitory concentration of each compound was recorded by reference to guidelines from the Clinical and Laboratory Standards Institute.
(§12) The minimum inhibitory concentrations of the compounds against experimental strains were tested in this study by reference to the medium microdilution method as indicated by the Clinical and Laboratory Standards Institute. Compounds were diluted two-fold in 96-well plates from the highest detection concentration of 16, 32 or 64 μg/mL. The bacterial inocula in the assay plates were thawed from corresponding medium plates and diluted in 1.02×CAMHB, while growth controls (GC wells) were set up in the assay plates. The minimum inhibitory concentration of each compound against different bacteria was observed and recorded after the assay plates were incubated in a normal incubator at 35 t 2° C. for about 20 h. The minimum inhibitory concentration values for the different compounds are listed in the list below.

[2] = tested on: Enterobacter cloacae HDBECL 30030; conditions: HDBECL30030
Experimental: as §1, §2, §3, §4, §5, §6, §7, §8, §9, §10, §11, §12

[3] = tested on: Escherichia coli HDBEC 30008; conditions: HDBEC30008
Experimental: as §1, §2, §3, §4, §5, §6, §7, §8, §9, §10, §11, §12

[4] = tested on: Escherichia coli HDBEC 30048; conditions: HDBEC30048
Experimental: as §1, §2, §3, §4, §5, §6, §7, §8, §9, §10, §11, §12

[5] = tested on: Pseudomonas aeruginosa HDBPA 5679; conditions: HDBPA5679
Experimental: as §1, §2, §3, §4, §5, §6, §7, §8, §9, §10, §11, §12

[6] = tested on: Klebsiella pneumoniae HDBKP 30006; conditions: HDBKP30006
Experimental: as §1, §2, §3, §4, §5, §6, §7, §8, §9, §10, §11, §12

[7] = tested on: Klebsiella pneumoniae HDBKP 9249; conditions: HDBKP9249
Experimental: as §1, §2, §3, §4, §5, §6, §7, §8, §9, §10, §11, §12

[8] = tested on: Klebsiella pneumoniae HDBKP 9153; conditions: HDBKP9153
Experimental: as §1, §2, §3, §4, §5, §6, §7, §8, §9, §10, §11, §12

[9] = tested on: Proteus mirabilis HDBPM 40; conditions: HDBPM40
Experimental: as §1, §2, §3, §4, §5, §6, §7, §8, §9, §10, §11, §12

Compound	MIC [1] [µg/mL]	MIC [2] [µg/mL]	MIC [3] [µg/mL]	MIC [4] [µg/mL]	MIC [5] [µg/mL]	MIC [6] [µg/mL]	MIC [7] [µg/mL]	MIC [8] [µg/mL]	MIC [9] [µg/mL]
C[n+]1cc(-c2ncc(C(=O)NC[C@@H]3[C@H](NC(=O)/C(=N\OC(C)(C)C(=O)O)c4nsc(N)n4)C(=O)N3S(=O)(=O)O)s2)cn1CCCN [Compound I-16]	> 16	> 16	8 to 16	> 16	> 16	> 16	8 to 16	> 16	< 4
Nc1nc(/C(=N/OC2(C(=O)O)CC2)C(=O)N[C@H]2C(=O)N(S(=O)(=O)O)[C@H]2CNC(=O)c2cc([C@@H]3CCN(C(=O)c4cc(=O)c(O)cn4O)C3)no2)cs1 [Compound I-17]	4 to 8 (≈ 5.22 to 10.4 µM)	< 4	< 4	< 4	< 4	> 16	< 4	< 4	< 4
CC(C)(O/N=C(\C(=O)N[C@H]1C(=O)N(S(=O)(=O)O)[C@H]1CNC(=O)c1cc([C@@H]2CCN(C(=O)c3ccc(O)c(O)c3Cl)C2)no1)c1csc(N)n1)C(=O)O [Compound I-18]	8 to 16 (≈ 10.2 to 20.4 µM)	< 4	< 4	< 4	4 to 8 (≈ 5.09 to 10.2 µM)	> 16	> 16	4 to 8 (≈ 5.09 to 10.2 µM)	< 4
CC(C)(O/N=C(\C(=O)N[C@H]1C(=O)N(S(=O)(=O)O)[C@H]1CNC(=O)c1cc([C@@H]2CCN(C(=O)c3cc(Cl)c(O)c(O)c3Cl)C2)no1)c1csc(N)n1)C(=O)O [Compound I-19]	4 to 8 (≈ 4.88 to 9.76 µM)	< 4	< 4	< 4	4 to 8 (≈ 4.88 to 9.76 µM)	> 16	8 to 16 (≈ 9.76 to 19.5 µM)	< 4	< 4
CC(C)(O/N=C(\C(=O)N[C@H]1C(=O)N(S(=O)(=O)O)[C@H]1CNC(=O)c1cc([C@@H]2CC[N+](C)(CCNC(=O)c3ccc(O)c(O)c3Cl)C2)no1)c1csc(N)n1)C(=O)O (stereo partly drawn) [Compound I-20]	> 16	< 4	< 4	8 to 16	8 to 16	> 16	> 16	8 to 16	< 4
CC(C)(O/N=C(\C(=O)N[C@H]1C(=O)N(S(=O)(=O)O)[C@H]1CNC(=O)c1cc([C@@H]2CCN(C(=O)c3cc(=O)c(O)cn3O)C2)no1)c1csc(N)n1)C(=O)O [Compound I-21]	> 16	< 4	< 4	< 4	< 4	> 16	> 16	< 4	< 4
Nc1nc(/C(=N/OC2(C(=O)O)CC2)C(=O)N[C@@H]2C(=O)N(S(=O)(=O)O)[C@@H]2CNC(=O)c2cc([C@@H]3CCN(C(=O)c4cc(=O)c(O)cn4O)C3)no2)cs1 [Compound I-22]	4 to 8 (≈ 5.22 to 10.4 µM)	< 4	< 4	< 4	< 4	> 16	4 to 8 (≈ 5.22 to 10.4 µM)	< 4	< 4
Nc1nc(/C(=N/OC2(C(=O)O)CC2)C(=O)N[C@@H]2C(=O)N(S(=O)(=O)O)[C@@H]2CNC(=O)c2cc([C@@H]3CCN(C(=O)c4ccc(O)c(O)c4Cl)C3)no2)cs1 [Compound I-23]	< 4	< 4	< 4	< 4	< 4	8 to 16 (≈ 10.2 to 20.4 µM)	< 4	< 4	< 4
C[N+]1(CCNC(=O)c2ccc(O)c(O)c2Cl)CC[C@@H](c2cc(C(=O)NC[C@@H]3[C@H](NC(=O)/C(=N\OC4(C(=O)O)CC4)c4csc(N)n4)C(=O)N3S(=O)(=O)O)on2)C1 (stereo partly drawn) [Compound I-24]	8 to 16	< 4	< 4	< 4	< 4	8 to 16	< 4	< 4	< 4
Nc1nc(/C(=N/OC2(C(=O)O)CC2)C(=O)N[C@@H]2C(=O)N(S(=O)(=O)O)[C@@H]2CNC(=O)c2cc([C@H]3CCN(C(=O)c4cc(=O)c(O)cn4O)C3)no2)cs1 [Compound I-25]	4 to 8 (≈ 5.22 to 10.4 µM)	< 4	< 4	< 4	< 4	> 16	4 to 8 (≈ 5.22 to 10.4 µM)	< 4	< 4
CC(C)(O/N=C(\C(=O)N[C@H]1C(=O)N(S(=O)(=O)O)[C@H]1CNC(=O)c1cc([C@@H]2CCN(C(=O)c3cc(=O)c(O)cn3O)C2)no1)c1nc(N)sc1Cl)C(=O)O [Compound I-26]	> 16	> 16	> 16	> 16	> 16	> 16	> 16	> 16	4 to 8 (≈ 4.99 to 9.97 µM)
CC(C)(O/N=C(\C(=O)N[C@@H]1C(=O)N(S(=O)(=O)O)[C@@H]1CNC(=O)c1cnc([C@@H]2CC[N+](C)(CCNC(=O)c3ccc(O)c(O)c3Cl)C2)s1)c1csc(N)n1)C(=O)O (stereo partly drawn) [Compound I-34]	< 4	< 4	< 4	< 4	< 4	4 to 8	8 to 16	< 4	< 4
CC(C)(O/N=C(\C(=O)N[C@@H]1C(=O)N(S(=O)(=O)O)[C@@H]1CNC(=O)c1cc([C@@H]2CCN(CCNc3ccc(O)c(O)c3Cl)C2)no1)c1csc(N)n1)C(=O)O [Compound I-36]	4 to 8 (≈ 5 to 10 µM)	< 4	< 4	< 4	< 4	8 to 16 (≈ 10 to 20 µM)	< 4	< 4	< 4
